Measurements as given in the supplement of paper PMC10307832.

Experiments:
Experiment in all cases: relative viability (nuclei count vs DMSO), 5 days (fraction); higher = more cells survive
OSI-027 + Pemetrexed = compound: COc1cccc2cc(-c3nc([C@H]4CC[C@H](C(=O)O)CC4)n4ncnc(N)c34)[nH]c12 [OSI-027] + Nc1nc2[nH]cc(CCc3ccc(C(=O)N[C@@H](CCC(=O)O)C(=O)O)cc3)c2c(=O)[nH]1 [Pemetrexed] (partner 0.2 µM)
Summary of the method: (§1)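 The day after seeding in 1536-well plates, lung cancer cell lines were treated by pin tool with a single drug, or with a fixed anchor-drug dose together with five library-drug doses (not always all listed) in √10 steps. After 5 days, a combined fix-and-stain solution (final 0.05% Triton X-100, 1% formaldehyde, 1 ug/ml Hoechst) was added. Nuclei counted on 4× images gave relative viability as treated counts over vehicle counts, reported as the median of duplicate plates.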

OSI-027 + Tozasertib = compound: COc1cccc2cc(-c3nc([C@H]4CC[C@H](C(=O)O)CC4)n4ncnc(N)c34)[nH]c12 [OSI-027] + Cc1cc(Nc2cc(N3CCN(C)CC3)nc(Sc3ccc(NC(=O)C4CC4)cc3)n2)n[nH]1 [Tozasertib] (partner 0.1 µM)
Summary of the method: as §1

Vemurafenib + Crizotinib = compound: CCCS(=O)(=O)Nc1ccc(F)c(C(=O)c2c[nH]c3ncc(-c4ccc(Cl)cc4)cc23)c1F [Vemurafenib] + C[C@@H](Oc1cc(-c2cnn(C3CCNCC3)c2)cnc1N)c1c(Cl)ccc(F)c1Cl [Crizotinib] (partner 1 µM)
Summary of the method: as §1

OSI-027 + Bortezomib = compound: COc1cccc2cc(-c3nc([C@H]4CC[C@H](C(=O)O)CC4)n4ncnc(N)c34)[nH]c12 [OSI-027] + CC(C)C[C@H](NC(=O)[C@H](Cc1ccccc1)NC(=O)c1cnccn1)B(O)O [Bortezomib] (partner 0.002 µM)
Summary of the method: as §1

Cell Line	relative viability (OSI-027 + Pemetrexed; first compound 0.01 µM)	relative viability (OSI-027 + Pemetrexed; first compound 0.03162 µM)	relative viability (OSI-027 + Pemetrexed; first compound 0.1 µM)	relative viability (OSI-027 + Pemetrexed; first compound 0.3162 µM)	relative viability (OSI-027 + Pemetrexed; first compound 1 µM)	relative viability (OSI-027 + Tozasertib; first compound 0.01 µM)	relative viability (OSI-027 + Tozasertib; first compound 0.03162 µM)	relative viability (OSI-027 + Tozasertib; first compound 0.1 µM)	relative viability (OSI-027 + Tozasertib; first compound 0.3162 µM)	relative viability (OSI-027 + Tozasertib; first compound 1 µM)	relative viability (Vemurafenib + Crizotinib; first compound 0.03162 µM)	relative viability (Vemurafenib + Crizotinib; first compound 0.1 µM)	relative viability (Vemurafenib + Crizotinib; first compound 0.3162 µM)	relative viability (Vemurafenib + Crizotinib; first compound 1 µM)	relative viability (OSI-027 + Bortezomib; first compound 0.01 µM)	relative viability (OSI-027 + Bortezomib; first compound 0.03162 µM)	relative viability (OSI-027 + Bortezomib; first compound 0.1 µM)	relative viability (OSI-027 + Bortezomib; first compound 0.3162 µM)	relative viability (OSI-027 + Bortezomib; first compound 1 µM)
NCI-H2342	0.755	0.818	0.752	0.697	0.5	0.445	0.509	0.492	0.449	0.421									
SW 1573	0.817	0.982	0.852	0.771	0.343	0.186	0.197	0.206	0.142	0.178	0.628	0.941	1.01	0.722	1.18	0.897	0.831	0.776	0.732
NCI-H1792	0.569	0.852	0.757	0.635	0.214						0.905	0.913	0.806	1	1.03	0.688	0.858	0.899	0.212
LOU-NH91	0.387	0.368	0.493	0.508	0.63	0.656	0.617	0.571	0.658	0.484	0.691	0.515		0.752	0.452	0.486	0.473	0.546	0.455
LC-2-ad	0.279	0.239	0.273	0.283	0.271	0.464	0.4	0.449	0.443	0.397	0.315	0.461	0.377	0.392	1.03	0.984	1.05	1.09	0.662
HOP-62	0.371	0.307	0.341	0.331	0.261	0.382	0.39	0.369	0.442	0.277	0.905	0.987	0.94	0.862	0.679	0.726	0.377	0.65	0.609
NCI-H650	0.878	1.03	0.836	0.671	0.367	0.711	0.738	0.637	0.605	0.411	0.705	0.72	0.418	0.581	0.738	1.05	0.431	0.549	0.406
NCI-H1651	0.54	0.575	0.532	0.57	0.523	0.669	0.642	0.801	0.692	0.591	0.875	0.869	0.806	0.795	0.929	0.954	0.884	0.929	0.737
CAL-12T	1.17	1.18	1.22	0.976	0.527	0.377	0.287	0.317	0.294	0.212	0.759	0.644	0.592	0.689	0.814	1.02	0.713	0.754	0.729
LK-2	0.238		0.237	0.174	0.158	0.186	0.188	0.144	0.162	0.145	0.193	0.202	0.208	0.245					
EKVX	0.438	0.391	0.486	0.382	0.403	0.299	0.358	0.406	0.349	0.269	0.842		1	0.968	1.03	0.942	1.11	0.972	0.649
EMC-BAC-2	0.385	0.493	0.478	0.472	0.392	0.281	0.284	0.254	0.287	0.24	0.703	0.729	0.678	0.681	1.07	1.08	0.988	0.872	0.568
NCI-H520	0.785	0.645	0.596	0.487	0.263	0.429	0.385	0.396	0.339	0.193	0.659	0.755	0.765	0.703	0.62	0.394	0.459	0.179	0.225
NCI-H322M	0.602	0.608	0.633	0.556	0.519	0.488	0.485	0.413	0.397	0.307	0.934		1.23	0.716	1.23	1.24	1.13	0.983	0.986
COR-L 105	1.22	1.18	1.13	1.04	0.999	0.335	0.336	0.374	0.371	0.411	0.623		0.661	1.13	0.682	0.716	0.779	0.572	0.428
NCI-H2170	0.26	0.263	0.289	0.325	0.305	0.71	0.658	0.603	0.733	0.435	1.09	0.752	1.15	1.14					
NCI-H358	0.185	0.171	0.176	0.132	0.151	0.105	0.0898	0.0968	0.0931	0.0733	0.619		0.72	0.528					
NCI-H1793	0.795	0.866	0.468	0.391	0.209	0.284	0.313	0.28	0.239	0.209									
NCI-H2405	0.854	1.01	0.922	0.85	0.448	0.754	0.715	0.76	0.79	0.467	0.865	0.827		0.766	0.982	1.04	0.872	0.866	0.425
NCI-H727						0.584	0.65	0.716	0.725	0.456	0.793	0.623	1.2	0.954	0.915	0.9	0.896	0.766	0.682
201T	0.316	0.348	0.313	0.332	0.305	1	0.96	0.946	0.914	0.736	0.997	0.993	1.09	1.02	1.14	1.15	1.07	1.12	1.1
H3255	0.517	0.569	0.507	0.513	0.495	0.749	0.62	0.604	0.555	0.436	0.883		0.865	0.808	0.825	0.761	0.619	0.545	0.534

Cell Line	relative viability (OSI-027 + Pemetrexed; first compound 0.01 µM)	relative viability (OSI-027 + Pemetrexed; first compound 0.03162 µM)	relative viability (OSI-027 + Pemetrexed; first compound 0.1 µM)	relative viability (OSI-027 + Pemetrexed; first compound 0.3162 µM)	relative viability (OSI-027 + Pemetrexed; first compound 1 µM)	relative viability (OSI-027 + Tozasertib; first compound 0.01 µM)	relative viability (OSI-027 + Tozasertib; first compound 0.03162 µM)	relative viability (OSI-027 + Tozasertib; first compound 0.1 µM)	relative viability (OSI-027 + Tozasertib; first compound 0.3162 µM)	relative viability (OSI-027 + Tozasertib; first compound 1 µM)	relative viability (Vemurafenib + Crizotinib; first compound 0.03162 µM)	relative viability (Vemurafenib + Crizotinib; first compound 0.1 µM)	relative viability (Vemurafenib + Crizotinib; first compound 0.3162 µM)	relative viability (Vemurafenib + Crizotinib; first compound 1 µM)	relative viability (OSI-027 + Bortezomib; first compound 0.01 µM)	relative viability (OSI-027 + Bortezomib; first compound 0.03162 µM)	relative viability (OSI-027 + Bortezomib; first compound 0.1 µM)	relative viability (OSI-027 + Bortezomib; first compound 0.3162 µM)	relative viability (OSI-027 + Bortezomib; first compound 1 µM)
NCI-H1395	0.736	0.826	0.643	0.74	0.74	0.675	0.718	0.683	0.67	0.611									
NCI-H1355	1.07	1.06	1	0.777	0.572	0.546	0.492	0.541	0.461	0.361	1	0.963	0.992	1.05	1.24	1.19	1.01	0.926	0.528
IA-LM											0.694	0.916	1.1	0.422	0.736	0.765	0.438	0.21	0.113
HCC-827	0.259	0.23	0.276	0.264	0.242	0.447	0.478	0.456	0.343	0.363	0.825		0.924	0.863	0.973	1.07	1.06	1.12	1.05
NCI-H2085	0.776	0.879	0.797	0.841	0.795	0.785	0.654	0.741	0.784	0.568	0.875	0.841	0.822	0.783	1.11	0.965	0.95	0.977	0.853
NCI-H1755	0.5	0.417	0.454	0.655	0.439	0.532	0.559	0.524	0.484	0.409	0.798	0.842	0.844	0.79	1	0.96	0.983	0.89	0.556
PC-14	0.136	0.149	0.149	0.139	0.191	0.564	0.577	0.598	0.636	0.505	0.749		0.849	0.852	1.03	0.93	0.955	0.989	0.652
NCI-H3122	0.207	0.198	0.19	0.207	0.243	0.542	0.38	0.385	0.434	0.287	0.266	0.263	0.383	0.211	1.11	1.04	1.11	1.02	0.87
NCI-H1703											0.605	0.449	0.453	0.593	0.361	0.302	0.238	0.233	0.187
NCI-H1563	0.754	0.719	0.72	0.755	0.543						0.825	0.744	0.823	0.852	0.822	0.872	0.781	0.741	0.722
SK-MES-1	0.998	0.919	0.866	0.782	0.359	0.923	0.842	0.807	0.744	0.402	0.934	0.978	0.903	0.901					
SW 900	0.368	0.56	0.477	0.508	0.406		0.548	0.493	0.589	0.483									
EBC-1											0.188	0.19	0.197	0.182	0.497	0.557	0.515	0.53	0.375
NCI-H1944	0.657	0.691	0.77	0.59	0.519	0.239	0.251	0.22	0.221	0.175	1.03	0.816	1.09	1.06					
NCI-H1299											0.951	0.929	0.9	0.94	1.09	1.03	1.06	1.08	1.1
NCI-H1623						0.391	0.414	0.417	0.414	0.233									
NCI-H522	1.04	0.956	0.717	0.858	0.664	0.536	0.625	0.524	0.522	0.431									
NCI-H1648	0.849	0.825		0.656	0.701	0.412		0.419	0.366	0.305									
A549											0.704	0.717	0.743	0.717					
ABC-1						0.197	0.179	0.203	0.167	0.206	1.01	1.21	1.2	0.997	0.284	0.366	0.331	0.405	0.27
Calu-6											0.595	0.808	0.783	0.668	1.34	0.956	1	0.906	0.896
